Results from US4518528A, “α Amino fluoro ketones” (priority 1984, dated 1985).
Where a SMILES comes first, the peptide text is derived from it. [ ]: non-standard residue; d: D form. The star is where a group is joined. ξ: configuration not given here. ξF = NC(Cc1ccccc1)C(=O)O; Cbz = O=C(OCc1ccccc1)*; CH2F = FC*

Experiments:
plasma kallikrein = assay: Inhibition of plasma kallikrein by the method of Example 23; assay type: biochemical; settings: protease about 10 μM, ketone inhibitor about 0.1 mM
Experimental: (§1) An aqueous solution of elastase (0.3 μM) in 0.1M TES pH 8.2 containing CaCl2 (10 mM) was assayed against the synthetic substrate MeOSuc-Ala-Ala-Pro-Val-MNA. The liberated detecting group (MNA) was quantitated by fluorescence. A standard number of enzyme units were preincubated with each inhibitor at several concentrations for set time periods of 5, 15, 30, and 60 minutes at 37°; then all test samples were individually assayed for activity using the same synthetic substrate and conditions as per control with inhibitors absent. The amount of enzyme activity inhibited by each inhibitor was determined by subtracting the residual activity for each inhibitor against the control activity.
Following the method of Example 23, above, the serine protease plasma kallikrein is inhibited by the ketone inhibitor D-Pro-Phe-ArgCH2 F under the same conditions with a protease concentration of about 10 μM and ketone inhibitor concentration of about 0.1 mM.

glandular kallikrein = assay: Inhibition of glandular kallikrein by the method of Example 23; assay type: biochemical; settings: protease about 10 μM, ketone inhibitor about 0.1 mM
Experimental: as §1
Following the method of Example 23 above, the serine protease glandular kallikrein is inhibited by the ketone inhibitor D-Val-Leu-ArgCH2 F with a protease concentration of about 10 μM and a ketone inhibitor concentration of about 0.1 mM.

plasminogen activator = assay: Inhibition of plasminogen activator by the method of Example 23; assay type: biochemical; settings: protease about 50 μM, ketone inhibitor about 0.1 mM
Experimental: as §1
Following the method of Example 23, above, the serine protease plasminogen activator is inhibited by MeOSuc-Gly-Gly-ArgCH2 F under the same conditions with a protease concentration of about 50 μM and a ketone inhibitor concentration of about 0.1 mM.

trypsin = assay: Inhibition of trypsin by the method of Example 23; assay type: biochemical; settings: protease about 10 μM, ketone inhibitor about 0.1 mM
Experimental: as §1
Following the method of Example 23 above, the serine protease trypsin is inhibited by the ketone inhibitor Z-LysCH2 F with a protease concentration of about 10 μM and a ketone inhibitor concentration of about 0.1 mM.

cathepsin B [1] = molecular target: T1, cathepsin B (Rattus norvegicus, UniProt P00787); assay: Rate of inhibition of cathepsin B in rat tissue homogenates; assay type: biochemical; settings: inhibitor 0.10 μM, 25°
T1 construct: cathepsin B in rat spleen, pancreas, liver and kidney tissue homogenates; from tissue; host or cells: rat spleen, pancreas, liver and kidney (supernatant of homogenates)
Experimental: (§2) Enzyme activity was assayed using the synthetic oligopeptide substrate Bz-Val-Lys-Arg-AFC with 10 mM DTT and 1 mM of the activator salt EDTA at pH 6.5 by fluorescence detection of the liberated AFC. Units of enzyme activity were standardized per 100 ml of a 50 percent of glycerol-phosphate buffer solution. A standard concentration of enzyme (10 nM) was preincubated with each inhibitor (50 nM) over set time periods of 3, 5, 10, 15, 20 and 30 minutes, 25°; then all test samples were individually assayed for activity using the same synthetic substrate and condition to determine the remaining units of activity of the purified enzyme. The amount of enzyme activity inhibited by each inhibitor was determined by subtracting the residual activity for each inhibitor against the control activity. […] The inhibitor specificity constant (k3 /KI) for Z-Phe-AlaCH2 F is 30 fold higher than for Z-Phe-AlaCHN2.
The rate of inhibition of cathepsin B in rat spleen, pancreas, liver and kidney tissue homogenates was assayed using the inhibitors: Z-Phe-AlaCHN2; Z-Phe-AlaCH2 Cl; and Z-Phe-AlaCH2 F.
The proceding tissues were homogenized, centrifuged at 13,000 rpm for 25 minutes and the supernatant removed. Aliquots of the supernatant were diluted with water to yield a concentration of 0.01 μM. The method of Example 9 was followed. As soon in Table III, the inhibition by the three inhibitors relevant to Cathepsin B were compared for each of the tissue samples. Results are expressed as .tau. (the half-time of inactivation, inhibition). […] The concentration for the inhibitors was 0.10 μM and the incubation temperature was 25°.

[2] = test system: porcine pancreatic elastase; assay: Irreversible inhibition of elastase, fluorescence assay with MeOSuc-Ala-Ala-Pro-Val-MNA; assay type: biochemical; settings: alkaline conditions (0.1M TES pH 8.2, 10 mM CaCl2), 37°
Experimental: as §1

cathepsin L = assay: Inhibition of cathepsin L by the method of Example 22; assay type: biochemical; settings: same conditions and concentrations of protease to ketone inhibitor as Example 22
Experimental: Enzyme activity was assayed using the synthetic oligopeptide substrate Bz-Val-Lys-Arg-AFC with 10 mM DTT and 1 mM of the activator salt EDTA at pH 6.5 by fluorescence detection of the liberated AFC. Units of enzyme activity were standardized per 100 ml of a 50 percent of glycerol-phosphate buffer solution. A standard concentration of enzyme (10 nM) was preincubated with each inhibitor (50 nM) over set time periods of 3, 5, 10, 15, 20 and 30 minutes, 25°; then all test samples were individually assayed for activity using the same synthetic substrate and condition to determine the remaining units of activity of the purified enzyme. The amount of enzyme activity inhibited by each inhibitor was determined by subtracting the residual activity for each inhibitor against the control activity.

cathepsin B [3] = assay: Irreversible inhibition of purified cathepsin B, fluorescence assay with Bz-Val-Lys-Arg-AFC; assay type: biochemical, human and rat; settings: for k3 (rate constant of inactivation) / Ki: pH 6.5, 10 mM DTT, 1 mM EDTA, 25°; for Ki: read-out: KI (inhibitor dissociation constant); for k3 /KI (inhibitor specificity constant): pH 6.5, 25°
Experimental: as §2, with “([…])” for “(10 nM) was preincubated with each inhibitor (50 nM)”

T1 sequence (P00787 80-339): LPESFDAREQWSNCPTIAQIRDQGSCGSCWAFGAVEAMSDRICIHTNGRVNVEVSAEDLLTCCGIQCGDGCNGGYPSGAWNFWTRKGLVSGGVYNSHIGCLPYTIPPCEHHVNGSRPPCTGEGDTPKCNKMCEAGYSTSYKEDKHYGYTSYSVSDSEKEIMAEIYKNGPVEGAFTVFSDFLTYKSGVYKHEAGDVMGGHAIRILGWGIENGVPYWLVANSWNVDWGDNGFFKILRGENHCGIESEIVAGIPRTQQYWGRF

**Q.** With N=C(N)NCCC[C@H](NC(=O)[C@H](Cc1ccccc1)NC(=O)[C@H]1CCCN1)C(=O)CF [D-Pro-Phe-ArgCH2 F] (HELM PEPTIDE1{[dP].F.R.[FC[*:1]]}$$$$V2.0) as the compound, how does the “inhibition of plasma kallikrein (in words)” value (plasma kallikrein) read?
**A.** inhibited

**Q.** CC(C)C[C@H](NC(=O)[C@H](N)C(C)C)C(=O)N[C@@H](CCCNC(=N)N)C(=O)CF [D-Val-Leu-ArgCH2 F] (HELM PEPTIDE1{[dV].L.R.[FC[*:1]]}$$$$V2.0) was tested. Which “inhibition of glandular kallikrein (in words)” value (glandular kallikrein) did it give?
**A.** inhibited

**Q.** Which “inhibition of plasminogen activator (in words)” value (plasminogen activator) does the source give for COC(=O)CCC(=O)NCC(=O)NCC(=O)NC(CCCNC(=N)N)C(=O)CF (stereo not drawn) [MeOSuc-Gly-Gly-ArgCH2 F] here?
**A.** inhibited

**Q.** Which “inhibition of trypsin (in words)” value (trypsin) does the source give for NCCCCC(NC(=O)OCc1ccccc1)C(=O)CF (stereo not drawn) [Z-LysCH2 F] here?
**A.** inhibited

**Q.** C[C@H](NC(=O)[C@H](Cc1ccccc1)NC(=O)OCc1ccccc1)C(=O)CCl [Z-Phe-AlaCH2 Cl] was tested. Which “.tau. Half-Time (half-time of inactivation)” value (“.tau. Half-Time” for short) (cathepsin B [1]; rat KIDNEY homogenate) did it give?
**A.** 76.6 min

**Q.** And the “.tau. Half-Time” value (cathepsin B [1]; rat LIVER homogenate)?
**A.** 66.5 min

**Q.** And the “.tau. Half-Time” value (cathepsin B [1]; rat PANCREAS homogenate)?
**A.** 21.4 min

**Q.** And the “.tau. Half-Time” value (cathepsin B [1]; rat SPLEEN homogenate)?
**A.** 74.2 min

**Q.** What does the source list for CC(NC(=O)[C@H](Cc1ccccc1)NC(=O)OCc1ccccc1)C(=O)CF (stereo partly drawn) [Z-Phe-AlaCH2 F, 3-(N-Benzyloxycarbonylphenylalanylamido)-1-fluoro-2-butanone]?
**A.** .tau. Half-Time (half-time of inactivation) (cathepsin B [1]; rat KIDNEY homogenate): 7.9 min; .tau. Half-Time (half-time of inactivation) (cathepsin B [1]; rat LIVER homogenate): 8.5 min; .tau. Half-Time (half-time of inactivation) (cathepsin B [1]; rat PANCREAS homogenate): 12.4 min; .tau. Half-Time (half-time of inactivation) (cathepsin B [1]; rat SPLEEN homogenate): 14.2 min; inhibition of porcine pancreatic elastase (in words) [2]: inhibits; inhibition of cathepsin L (in words) (cathepsin L): inhibited; inhibition of purified cathepsin B (in words) (cathepsin B [3]; 0.1 μM inhibitor): effective inhibitor; k3 /KI fold higher than for Z-Phe-AlaCHN2 (cathepsin B [3]; purified cathepsin B): 30 fold; k3 (rate constant of inactivation) (cathepsin B [3]; purified cathepsin B): 9.2±1.3×10^-3 s^-1; Ki (cathepsin B [3]; purified cathepsin B): 0.57 ± 0.09 µM; k3 /KI (inhibitor specificity constant) (cathepsin B [3]; purified cathepsin B): 16,200 M^-1 s^-1

**Q.** With C[C@H](NC(=O)[C@H](Cc1ccccc1)NC(=O)OCc1ccccc1)C(=O)C=[N+]=[N-] [Z-Phe-AlaCHN2] as the compound, how does the “.tau. Half-Time” value (cathepsin B [1]; rat KIDNEY homogenate) read?
**A.** 20.1 min

**Q.** And the “.tau. Half-Time” value (cathepsin B [1]; rat LIVER homogenate)?
**A.** 22.4 min

**Q.** And the “.tau. Half-Time” value (cathepsin B [1]; rat PANCREAS homogenate)?
**A.** 15.8 min

**Q.** What about the “.tau. Half-Time” value (cathepsin B [1]; rat SPLEEN homogenate) of the same compound?
**A.** 26.4 min

**Q.** And the “k3 (rate constant of inactivation)” value (cathepsin B [3]; purified cathepsin B)?
**A.** 4.1±1.7×10^-3 s^-1

**Q.** What about the Ki (cathepsin B [3]; purified cathepsin B) of the same compound?
**A.** 7.4 ± 3 µM

**Q.** What about the “k3 /KI (inhibitor specificity constant)” value (cathepsin B [3]; purified cathepsin B) of the same compound?
**A.** 546 M⁻¹ s⁻¹

**Q.** O=C(N[C@@H](Cc1ccccc1)C(=O)NC(Cc1ccccc1)C(=O)CF)OCc1ccccc1 (stereo partly drawn) [Z-Phe-PheCH2 F] (Cbz-Phe-[ξF]-CH2F) was tested. Which “inhibition of cathepsin L (in words)” value (cathepsin L) did it give?
**A.** inhibited
